One may read the inhibition as the change of the read-out against control, counted positive when it falls. One may read the IC50 as the concentration that inhibits the measured activity by half.

These results are taken from patent US8853418B2, “Cyclopentylpyrazoles as N-type calcium channel blockers” (Janssen Pharmaceutica NV, priority 2012, dated 2014).

Read-outs that look alike come from different tables or passages of the source.

One assay has as its target N-type calcium channel (Homo sapiens, UniProt Q00975). Description: Automated Electrophysiology Assay (QPatch-HT whole-cell patch clamp; low- and high-frequency stimulation). It counts as cell-based. For orientation: Patch clamp records ionic current or voltage across a cell membrane.
The target of assay [1] is N-type calcium channel (α1B (Cav2.2), β3 and α2δ subunits) (Homo sapiens, UniProt Q00975). In words: Functional Assay: Antagonism of N-Type Calcium Channel (FDSS calcium mobilization, KCl depolarization). Type of assay: cell-based. The conditions noted are these: for IC50: HEK cell line, 50 mM KCl depolarization, six-point concentration-response, read-out: FDSS IC50. In a few lines:
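HEK cells stably co-expressing α1B (Cav2.2), β3 and α2δ were loaded with calcium dye, then given compound with fluorescence recorded for 5 min before 50 mM KCl depolarisation and 3 min more reading. IC50 came from six-point curves of maximal fluorescence, normalised to KCl maximum and buffer minimum.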
A general note: Calcium assays in cells follow changes in intracellular calcium, usually with a dye or a luminescent sensor.

Where [2] appears, read: high-frequency stimulation (15th pulse), read-out: QPatch at High Frequency % Inhibition.
Where [3] appears, read: low frequency, read-out: QPatch at Low Frequency % Inhibition.

Sequence of N-type calcium channel (α1B (Cav2.2), β3 and α2δ subunits) (Q00975 whole entry): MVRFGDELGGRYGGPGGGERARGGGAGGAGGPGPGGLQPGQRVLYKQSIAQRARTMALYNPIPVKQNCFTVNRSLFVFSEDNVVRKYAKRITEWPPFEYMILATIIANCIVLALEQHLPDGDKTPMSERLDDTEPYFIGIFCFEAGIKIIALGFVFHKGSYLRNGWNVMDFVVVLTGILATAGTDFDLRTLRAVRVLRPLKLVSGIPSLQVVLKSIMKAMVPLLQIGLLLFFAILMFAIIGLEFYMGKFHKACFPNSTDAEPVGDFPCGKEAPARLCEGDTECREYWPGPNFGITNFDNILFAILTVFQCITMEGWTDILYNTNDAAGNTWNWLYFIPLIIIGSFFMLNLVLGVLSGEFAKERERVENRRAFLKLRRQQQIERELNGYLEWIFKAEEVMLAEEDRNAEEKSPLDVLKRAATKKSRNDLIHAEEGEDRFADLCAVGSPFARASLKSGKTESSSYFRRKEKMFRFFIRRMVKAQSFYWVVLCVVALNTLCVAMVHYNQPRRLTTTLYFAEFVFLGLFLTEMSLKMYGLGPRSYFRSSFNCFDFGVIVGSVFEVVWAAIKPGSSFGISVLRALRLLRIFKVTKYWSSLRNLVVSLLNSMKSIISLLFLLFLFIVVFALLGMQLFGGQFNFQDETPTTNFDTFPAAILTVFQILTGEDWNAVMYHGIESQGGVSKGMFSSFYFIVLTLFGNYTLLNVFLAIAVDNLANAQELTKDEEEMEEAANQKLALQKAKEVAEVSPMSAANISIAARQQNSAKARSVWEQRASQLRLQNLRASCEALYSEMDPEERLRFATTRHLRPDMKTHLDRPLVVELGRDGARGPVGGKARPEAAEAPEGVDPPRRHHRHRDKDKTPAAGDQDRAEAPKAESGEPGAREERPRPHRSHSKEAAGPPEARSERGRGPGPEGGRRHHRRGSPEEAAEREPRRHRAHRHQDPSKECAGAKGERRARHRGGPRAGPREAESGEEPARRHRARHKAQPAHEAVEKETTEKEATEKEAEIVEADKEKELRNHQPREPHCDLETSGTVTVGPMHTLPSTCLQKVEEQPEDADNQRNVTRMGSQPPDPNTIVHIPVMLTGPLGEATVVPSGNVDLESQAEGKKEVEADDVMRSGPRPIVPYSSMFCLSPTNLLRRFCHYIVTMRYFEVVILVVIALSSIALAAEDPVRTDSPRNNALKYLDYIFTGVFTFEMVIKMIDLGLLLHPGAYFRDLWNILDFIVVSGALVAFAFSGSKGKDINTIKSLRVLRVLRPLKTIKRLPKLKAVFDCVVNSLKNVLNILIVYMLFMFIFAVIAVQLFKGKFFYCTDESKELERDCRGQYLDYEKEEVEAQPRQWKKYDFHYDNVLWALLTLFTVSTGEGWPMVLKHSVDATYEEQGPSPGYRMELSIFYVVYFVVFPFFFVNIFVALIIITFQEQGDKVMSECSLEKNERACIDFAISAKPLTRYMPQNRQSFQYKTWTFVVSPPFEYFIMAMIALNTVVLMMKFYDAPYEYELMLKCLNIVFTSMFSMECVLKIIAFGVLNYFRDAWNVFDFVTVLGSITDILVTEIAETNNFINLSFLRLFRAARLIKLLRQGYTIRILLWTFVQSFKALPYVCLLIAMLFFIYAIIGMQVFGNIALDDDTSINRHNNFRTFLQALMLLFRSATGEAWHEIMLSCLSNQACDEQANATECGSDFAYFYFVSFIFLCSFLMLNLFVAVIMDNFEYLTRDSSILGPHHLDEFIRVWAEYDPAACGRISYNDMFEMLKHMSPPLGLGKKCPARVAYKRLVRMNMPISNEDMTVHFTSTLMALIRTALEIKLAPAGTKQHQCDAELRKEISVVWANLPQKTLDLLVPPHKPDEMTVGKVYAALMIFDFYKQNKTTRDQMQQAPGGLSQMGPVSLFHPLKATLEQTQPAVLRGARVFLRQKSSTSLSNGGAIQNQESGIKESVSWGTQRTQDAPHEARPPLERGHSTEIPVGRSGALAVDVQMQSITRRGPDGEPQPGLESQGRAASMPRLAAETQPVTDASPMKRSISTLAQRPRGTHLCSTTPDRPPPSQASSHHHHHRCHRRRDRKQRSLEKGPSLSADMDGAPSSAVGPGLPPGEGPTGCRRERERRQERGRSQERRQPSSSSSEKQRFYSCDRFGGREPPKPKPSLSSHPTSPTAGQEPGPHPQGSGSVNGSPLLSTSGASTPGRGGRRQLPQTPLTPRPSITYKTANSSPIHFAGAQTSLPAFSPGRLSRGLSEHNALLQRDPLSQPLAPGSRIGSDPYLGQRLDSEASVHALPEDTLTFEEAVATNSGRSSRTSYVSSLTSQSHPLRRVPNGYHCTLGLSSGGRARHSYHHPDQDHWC
Sequence of N-type calcium channel (α1B (Cav2.2), β3 and α2δ subunits) (P54284 whole entry partner): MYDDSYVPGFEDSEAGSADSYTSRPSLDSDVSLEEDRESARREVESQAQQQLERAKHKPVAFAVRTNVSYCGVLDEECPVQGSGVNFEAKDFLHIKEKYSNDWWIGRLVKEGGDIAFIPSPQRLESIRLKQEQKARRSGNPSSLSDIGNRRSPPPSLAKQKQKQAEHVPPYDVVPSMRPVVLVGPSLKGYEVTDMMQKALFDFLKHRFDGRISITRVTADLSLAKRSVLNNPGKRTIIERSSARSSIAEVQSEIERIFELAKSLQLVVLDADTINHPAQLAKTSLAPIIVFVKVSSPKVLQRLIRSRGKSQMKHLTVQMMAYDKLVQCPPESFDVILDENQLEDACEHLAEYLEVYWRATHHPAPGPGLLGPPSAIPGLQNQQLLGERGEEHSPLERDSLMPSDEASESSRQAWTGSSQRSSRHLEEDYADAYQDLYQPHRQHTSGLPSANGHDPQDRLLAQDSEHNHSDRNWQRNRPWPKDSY
Sequence of N-type calcium channel (α1B (Cav2.2), β3 and α2δ subunits) (P54289 25-946 partner limits assumed): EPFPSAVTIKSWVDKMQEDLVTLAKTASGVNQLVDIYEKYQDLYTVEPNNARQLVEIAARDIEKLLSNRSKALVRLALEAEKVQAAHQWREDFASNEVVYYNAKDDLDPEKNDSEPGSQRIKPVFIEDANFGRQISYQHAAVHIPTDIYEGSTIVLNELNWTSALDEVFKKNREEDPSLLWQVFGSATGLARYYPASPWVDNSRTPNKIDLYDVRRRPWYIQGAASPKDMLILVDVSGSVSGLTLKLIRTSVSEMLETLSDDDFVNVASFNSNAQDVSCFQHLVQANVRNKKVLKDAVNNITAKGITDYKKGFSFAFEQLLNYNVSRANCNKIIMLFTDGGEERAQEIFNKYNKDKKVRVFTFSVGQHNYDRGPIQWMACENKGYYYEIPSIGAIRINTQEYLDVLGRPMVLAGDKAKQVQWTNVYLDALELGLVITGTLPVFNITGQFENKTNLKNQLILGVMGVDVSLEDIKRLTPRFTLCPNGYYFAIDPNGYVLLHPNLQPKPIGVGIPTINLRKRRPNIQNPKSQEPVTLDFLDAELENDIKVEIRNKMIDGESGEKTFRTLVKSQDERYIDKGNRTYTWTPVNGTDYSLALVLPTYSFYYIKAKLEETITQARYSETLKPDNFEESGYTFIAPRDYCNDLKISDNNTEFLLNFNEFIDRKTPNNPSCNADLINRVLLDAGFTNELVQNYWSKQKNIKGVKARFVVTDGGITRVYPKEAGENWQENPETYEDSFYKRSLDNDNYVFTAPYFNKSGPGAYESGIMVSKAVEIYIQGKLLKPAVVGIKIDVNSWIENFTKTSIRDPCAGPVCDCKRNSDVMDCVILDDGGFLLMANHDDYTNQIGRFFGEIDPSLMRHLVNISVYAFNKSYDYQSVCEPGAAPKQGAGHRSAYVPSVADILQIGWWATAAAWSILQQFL
Sequence of N-type calcium channel (α1B (Cav2.2), β3 and α2δ subunits) (P54289 947-1103 partner limits assumed): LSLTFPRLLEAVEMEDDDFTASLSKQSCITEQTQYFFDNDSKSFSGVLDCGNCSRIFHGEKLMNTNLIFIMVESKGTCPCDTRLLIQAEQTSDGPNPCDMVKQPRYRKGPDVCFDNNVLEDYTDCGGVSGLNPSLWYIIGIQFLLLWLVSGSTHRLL
Sequence of N-type calcium channel (Q00975 whole entry): as the sequence (Q00975 whole entry) above
Sequence of N-type calcium channel (P54284 whole entry partner): as the sequence (P54284 whole entry partner) above
Sequence of N-type calcium channel (P54289 25-946 partner limits assumed): as the sequence (P54289 25-946 partner limits assumed) above
Sequence of N-type calcium channel (P54289 947-1103 partner limits assumed): as the sequence (P54289 947-1103 partner limits assumed) above

With `CCOc1ccccc1-n1nc2c(c1-c1ccc(Cl)cc1)CC(n1cc([Si](C)(C)C)nn1)C2` (stereo not drawn) [Compound 41, 3-(4-chlorophenyl)-2-(2-ethoxyphenyl)-5-[4-(trimethylsilyl)-1H-1,2,3-triazol-1-yl]-2,4,5,6-tetrahydrocyclopenta[c]pyrazole], the results for the inhibition at 0.1 µM at N-type calcium channel (setting [2]) and at N-type calcium channel (setting [3]) were 60% and 58%, respectively. The inhibition at 0.33 µM in assay [1] was found to be 92%. Moreover, in assay [1], the IC50 worked out at 24 nM.

Consider `CCOc1ccccc1-n1nc2c(c1-c1ccc(Cl)cc1)CC(n1ccnn1)C2` (stereo not drawn) [Compound 42, 3-(4-chlorophenyl)-2-(2-ethoxyphenyl)-5-(1H-1,2,3-triazol-1-yl)-2,4,5,6-tetrahydrocyclopenta[c]pyrazole], for which the inhibition at 1 µM at N-type calcium channel (setting [2]) is 87%. Besides, on N-type calcium channel (setting [3]), the inhibition at 1 µM was 86%. For the same molecule, in assay [1], the inhibition at 0.33 µM came to 91% and the IC50 amounted to 19 nM.

`CCOc1ccccc1-n1nc2c(c1-c1ccc(Cl)cc1)C[C@@H](n1ccnc1)C2` [Compound 43, (5R)-3-(4-chlorophenyl)-2-(2-ethoxyphenyl)-5-(1H-imidazol-1-yl)-2,4,5,6-tetrahydrocyclopenta[c]pyrazole]: at N-type calcium channel (setting [2]), the inhibition at 0.1 µM stood at 5%. For the same molecule, the inhibition at 0.1 µM on N-type calcium channel (setting [3]) was -22%. Moreover, in assay [1], the inhibition at 0.33 µM stood at 87% and the IC50 turned out to be 42 nM.

In the case of `CCOc1ccccc1-n1nc2c(c1-c1ccc(Cl)cc1)C[C@@H](NS(=O)(=O)C(C)C)C2` [Compound 44, N-[(5R)-3-(4-chlorophenyl)-2-(2-ethoxyphenyl)-2,4,5,6-tetrahydrocyclopenta[c]pyrazol-5-yl]propane-2-sulfonamide], the inhibition at 0.1 µM at N-type calcium channel (setting [2]) was 48%. Moreover, the inhibition at 0.1 µM at N-type calcium channel (setting [3]) amounted to 42%. In assay [1], the inhibition at 0.33 µM was determined as 89% and the IC50 came out at 32 nM.

Consider `CCOc1ccccc1-n1nc2c(c1-c1ccc(Cl)cc1)C[C@@H](NC(=O)C(F)(F)F)C2` [Compound 45, N-[(5R)-3-(4-chlorophenyl)-2-(2-ethoxyphenyl)-2,4,5,6-tetrahydrocyclopenta[c]pyrazol-5-yl]-2,2,2-trifluoroacetamide], for which the inhibition at 0.1 µM at N-type calcium channel (setting [2]) is 68%. In addition, on N-type calcium channel (setting [3]), the inhibition at 0.1 µM was 60%. In assay [1], the inhibition at 0.33 µM is 94% and the IC50 is 4 nM.

Take `CCOc1ccccc1-n1nc2c(c1-c1ccc(Cl)cc1)C[C@@H](N(C)S(=O)(=O)N(C)C)C2` [Compound 46, N-[(5R)-3-(4-chlorophenyl)-2-(2-ethoxyphenyl)-2,4,5,6-tetrahydrocyclopenta[c]pyrazol-5-yl]-N,N′,N′-trimethylsulfamide]: the inhibition at 0.1 µM on N-type calcium channel (setting [2]) came to 50%. Also, the inhibition at 0.1 µM at N-type calcium channel (setting [3]) is 21%. In addition, in assay [1], the inhibition at 0.33 µM worked out at 99% and the IC50 was determined as 2.6 nM.

Regarding `CCOc1ccccc1-n1nc2c(c1-c1ccc(Cl)cc1)CC(NS(=O)(=O)N(C)C)C2` (stereo not drawn) [Compound 47, N′-[3-(4-chlorophenyl)-2-(2-ethoxyphenyl)-2,4,5,6-tetrahydrocyclopenta[c]pyrazol-5-yl]-N,N-dimethylsulfamide], the inhibition at 0.1 µM was 19% on N-type calcium channel (setting [2]) and 15% at N-type calcium channel (setting [3]). Also, the inhibition at 0.33 µM in assay [1] turned out to be 92%. The IC50 in assay [1] was determined as 4 nM.

As for `CCOc1ccccc1-n1nc2c(c1-c1ccc(Cl)cc1)CC(N(C)S(=O)(=O)N(C)C)C2` (stereo not drawn) [Compound 48, N-[3-(4-chlorophenyl)-2-(2-ethoxyphenyl)-2,4,5,6-tetrahydrocyclopenta[c]pyrazol-5-yl]-N,N′,N′-trimethylsulfamide], the values for the inhibition at 0.1 µM on N-type calcium channel (setting [2]) and on N-type calcium channel (setting [3]) were 63% and 52%, respectively. Also, the inhibition at 0.33 µM in assay [1] is 97%. In addition, in assay [1], the IC50 was found to be 1.2 nM.

On to `CN(C)S(=O)(=O)N(C)[C@@H]1Cc2nn(-c3cccc4c3OCC4)c(-c3ccc(Cl)cc3)c2C1` [Compound 50, N-[(5S)-3-(4-chlorophenyl)-2-(2,3-dihydro-1-benzofuran-7-yl)-2,4,5,6-tetrahydrocyclopenta[c]pyrazol-5-yl]-N,N′,N′-trimethylsulfamide], for which the inhibition at 0.1 µM on N-type calcium channel (setting [2]) is 41%. Moreover, the inhibition at 0.1 µM at N-type calcium channel (setting [3]) turned out to be 33%. In addition, in assay [1], the inhibition at 0.33 µM turned out to be 95% and the IC50 turned out to be 14 nM.

Regarding `CC(C)S(=O)(=O)N(C)[C@@H]1Cc2nn(-c3cccc4c3OCC4)c(-c3ccc(Cl)cc3)c2C1` [Compound 51, N-[(5S)-3-(4-chlorophenyl)-2-(2,3-dihydro-1-benzofuran-7-yl)-2,4,5,6-tetrahydrocyclopenta[c]pyrazol-5-yl]-N-methylpropane-2-sulfonamide], at N-type calcium channel (setting [2]), the inhibition at 1 µM is 66%. For the same molecule, the inhibition at 1 µM at N-type calcium channel (setting [3]) stood at 49%. Also, in assay [1], the inhibition at 0.33 µM was found to be 94% and the IC50 amounted to 34 nM.

For `COc1ccccc1-n1nc2c(c1-c1ccc(Cl)cc1)CC1(C2)OCCCO1` [Compound 54, 3-(4-chlorophenyl)-2-(2-methoxyphenyl)-2,6-dihydro-4H-spiro[cyclopenta[c]pyrazole-5,2′-[1,3]dioxane]], the inhibition at 1 µM at N-type calcium channel (setting [2]) amounted to 67%. Also, the inhibition at 1 µM at N-type calcium channel (setting [3]) is 55%. In addition, in assay [1], the inhibition at 0.33 µM is 86% and the IC50 was 50 nM.

Take `CCC(CC)C(=O)O[C@H]1Cc2nn(-c3ccccc3OC)c(-c3ccc(Cl)cc3)c2C1` [Compound 55, (5R)-3-(4-chlorophenyl)-2-(2-methoxyphenyl)-2,4,5,6-tetrahydrocyclopenta[c]pyrazol-5-yl 2-ethylbutanoate]: on N-type calcium channel (setting [2]), the inhibition at 0.03 µM worked out at 19%, the inhibition at 0.1 µM is 29% and the inhibition at 1 µM stood at 79%. On N-type calcium channel (setting [3]), the inhibition at 0.03 µM stood at 15%, the inhibition at 0.1 µM was determined as 12% and the inhibition at 1 µM is 57%. Also, in assay [1], the inhibition at 0.33 µM turned out to be 95% and the IC50 stood at 11 nM.

As for `COc1ccc(-c2c3c(nn2-c2ccccc2OC)C[C@H](N(C)S(=O)(=O)N(C)C)C3)cn1` [Compound 56, N-[(5R)-2-(2-Methoxyphenyl)-3-(6-methoxypyridin-3-yl)-2,4,5,6-tetrahydrocyclopenta[c]pyrazol-5-yl]-N,N′,N′-trimethylsulfamide], on N-type calcium channel (setting [2]), the inhibition at 0.1 µM was determined as 2% and the inhibition at 1 µM is 47%. At N-type calcium channel (setting [3]), the inhibition at 0.1 µM is -1% and the inhibition at 1 µM was found to be 32%. Also, in assay [1], the inhibition at 0.33 µM was 93% and the IC50 was determined as 13 nM.

With `COc1ccccc1-n1nc2c(c1-c1ccc(OC(C)C)nc1)C[C@@H](N(C)S(=O)(=O)N(C)C)C2` [Compound 57, N-{(5R)-2-(2-Methoxyphenyl)-3-[6-(1-methylethoxy)pyridin-3-yl]-2,4,5,6-tetrahydrocyclopenta[c]pyrazol-5-yl}-N,N′,N′-trimethylsulfamide], the inhibition at 1 µM is 83% at N-type calcium channel (setting [2]) and 75% at N-type calcium channel (setting [3]). Moreover, in assay [1], the inhibition at 0.33 µM was 99%. For the same molecule, in assay [1], the IC50 turned out to be 18 nM.

Take `COc1ccccc1-n1nc2c(c1-c1ccc(Cl)cc1)CC(c1cccnc1)C2` (stereo not drawn) [Compound 63, 3-(4-chlorophenyl)-2-(2-methoxyphenyl)-5-pyridin-3-yl-2,4,5,6-tetrahydrocyclopenta[c]pyrazole]: the inhibition at 1 µM at N-type calcium channel (setting [2]) is 62%. Besides, on N-type calcium channel (setting [3]), the inhibition at 1 µM stood at 40%. Also, in assay [1], the inhibition at 0.33 µM amounted to 98% and the IC50 was 8.6 nM.
